Measured values: patent US10709784B2, “Metal chelating compositions and methods for controlling the growth or activities of a living cell or organism” (CHELATION PARTNERS INCORPORATED, priority 2011, dated 2020)
Values after ≈ are worked out from the molar mass of the structure shown. Like-named read-outs stand apart in the source and are kept apart here.

Experiments:
Type in all cases: cell-based
[1] = system: Candida albicans ATCC 10231; experiment: Growth with chelating materials of different molecular weight, 84 hours; conditions: 30° C., defined medium without added iron, FIG. 8
Method: Candida albicans ATCC 10231 was tested for its sensitivities to: the medical chelator deferiprone (#1 in the graph of FIG. 8) (a product of Apotex Pharmaceuticals); the precursor chemicals used for the preparation of soluble chelating compositions of the present invention, including 3-hydroxy-2-methyl-4-pyrone (#2 in the graph of FIG. 8), AHMP as from Example 1 (#3 in the graph of FIG. 8) and MAHMP as from Example 2 (#4 in the graph of FIG. 8) and also the soluble chelating composition as from Example 4 (#5 in the graph of FIG. 8). The yeast was grown in defined medium as for Example 18 with no additional added iron (i.e., the only but adequate Fe available for the yeast was contributed from being present along with the other added medium components). Growth of the yeast in the defined media with added test chelating materials was compared to control samples that had not received any of the chelating materials following 84 hours of incubation and growth at 30° C. […] These chelators being internalized by the yeast were incapable of restricting iron supply to the yeast cells. […] Thus, low molecular weight chelators such as deferiprone and similar compounds permitted growth while the soluble chelating composition that contained functional groups similar to deferiprone but was a molecular weight higher than 1500 Daltons restricted growth, eventhough the various compounds tested were each capable of binding iron through their pyridinone functionality.

[2] = system: Escherichia coli ATCC #25922; experiment: Antibiotic MIC in untreated versus iron-extracted RPMI
Description: (§1) Test microorganisms included Pseudomonas aeruginosa strain PA01, Escherichia coli ATCC #25922 and Staphylococcus aureus ATCC #29213.

[3] = system: Pseudomonas aeruginosa strain PA01; experiment: as above
Description: as §1

[4] = system: Staphylococcus aureus ATCC #29213; experiment: as above
[5] = system: Candida albicans ATCC 10231; experiment: Fluorocytosine MIC (80% growth inhibition) with soluble chelator
Method: Candida albicans ATCC 10231, yeast cells, as grown in defined medium with no additional added Fe as in example 18 and example 19, were tested in the same media for their sensitivities to 5-fluorocytosine, as a proto-typical example of the class of […] that are commonly used to control fungal and cancer cell growth in humans and with fluorocytosine plus the soluble chelating composition, as prepared in example 4.

[6] = system: antibiotic resistant strains of Staphylococcus aureus; experiment: NCCLS MIC antibiotic sensitivity with added chelator; conditions: for MIC penicillin: Strain WBG8701
Method: Sensitive or antibiotic resistant strains of Staphylococcus aureus (S. aureus) were grown on blood agar plates overnight at 37° C. Four to six individual colonies of each strain were harvested into Mueller-Hinton broth (MHB) and incubated at 37° C. until they reached an optical density equal to or exceeding a 0.5 McFarland standard. The culture was diluted with MHB to equal 0.5 McFarland standard. Dilutions (10^−1) of these standards were used for inocula. Various stains of antibiotic resistant Staphylococcus aureus were used for these tests as shown in the results below. It should be appreciated that growing the bacterial strains on blood agar and then in MHB ensured the inoculum was not restricted for iron prior to the test but rather the bacterial cells were with ample endogenous iron supply.
A range of two-fold dilutions of a test antibiotic was prepared in MHB. […] Soluble and insoluble chelating compositions, as prepared in Example 6 or Example 5, or the free iron chelating agent deferiprone were added to the antibiotic containing tubes at known concentrations of iron binding capacity (referred to as iron binding equivalents) to allow direct comparison of the different compositions or free chelator. The final volume per tube was 500 μl. Bacterial inoculum, 25 μl of the 10^−1 dilutions of the appropriate S. aureus strain was added to each tube. The tubes were incubated at an angle on a reciprocating shaker at 37° C. overnight and results were scored as growth based on turbidity or no growth (lack of turbidity). The Minimum Inhibitory Concentration (MIC) for the antibiotic was determined from the growth results.
A series of tests was set up as in Example 15 with various antibiotic anti-cellular agents. The clinically isolated strains were obtained from the culture collection of Warren Grubb, Curtin University, Perth, Australia.
A series of antibiotic sensitivity tests was set up as in example 16 utilizing the soluble chelating compositions as prepared in Example 6. Separate test series with different clinically isolated Staphylococcus aureus strains, as obtained from the culture collection of Warren Grubb, Curtin University, Perth, Australia, and various antibiotics were employed but for each series a control test comprising addition of iron sufficient to supply two times the chelating capacity of the supplied chelating composition was also included.

[7] = system: Candida albicans ATCC 10231; experiment: Nystatin MIC (80% growth inhibition) with soluble chelator
Method: Candida albicans ATCC 10231, yeast cells, as grown in defined medium with no additional added Fe as in example 18 and example 19, were tested in the same media for their sensitivities to nystatin, an antifungal agent as proto-typical of the class of polyene antibiotics that are commonly used to control fungal growth and pathogenesis in humans and with nystatin plus the soluble chelating composition, as prepared in example 4. Nystatin as typical of the polyene class of antifungal agents causes membrane damage as part of its mechanism of anti-fungal activity.

[8] = system: Candida albicans ATCC 10231; experiment: Preservative agent MIC (80% inhibition) challenge test with soluble chelator
[9] = Escherichia coli, ATCC25922, Treated RPMI + 0.009 μM Fe, read-out: MIC
[10] = Escherichia coli, ATCC25922, Untreated RPMI 0.11 μM Fe, read-out: MIC
[11] = Pseudomonas aeruginosa, PA01, Treated RPMI + 0.09 μM Fe, read-out: MIC
[12] = Pseudomonas aeruginosa, PA01, Untreated RPMI 0.11 μM Fe, read-out: MIC
[13] = Staphylococcus aureus, ATCC29213, Treated RPMI + 0.004 μM Fe, read-out: MIC
[14] = Staphylococcus aureus, ATCC29213, Untreated RPMI 0.11 μM Fe, read-out: MIC
[15] = strain WBG525, No Chelator Added (control)
[16] = strain WBG525, plus Soluble Chelating Composition (Example 6) 1.1 mM Fe binding equivalents, * slight growth <5% of control
[17] = strain WBG525, plus Soluble Chelating Composition (Example 6) 2.2 mM Fe binding equivalents, * slight growth <5% of control
[18] = strain WBG4340, No Chelator Added (control)

## Cc1occc(=O)c1O [3-hydroxy-2-methyl-4-pyrone]
[1]
  growth of the yeast compared to control: did not substantially restrict growth

## Cc1c(O)c(=O)ccn1CCN [AHMP, 1-aminoethyl-3-hydroxy-2-methyl-4(1H)-pyridinone]
[1]
  growth of the yeast compared to control: did not substantially restrict growth

## CC1(C)S[C@@H]2[C@H](NC(=O)[C@H](N)c3ccccc3)C(=O)N2[C@H]1C(=O)O [Ampicillin]
[2]; [9]
  MIC: 4 µg/mL
[2]; [10]
  MIC: 4 µg/mL (≈ 11.4 µM)
[3]; [11]
  MIC: > 512 µg/mL
[3]; [12]
  MIC: > 512 µg/mL
[4]; [13]
  MIC: 0.25 µg/mL
[4]; [14]
  MIC: 1 µg/mL (≈ 2.86 µM)

## O=C(O)c1cn(C2CC2)c2cc(N3CCNCC3)c(F)cc2c1=O [Ciprofloxacin]
[2]; [9]
  MIC: 0.008 µg/mL
[2]; [10]
  MIC: 0.0078 µg/mL (≈ 0.0235 µM)
[3]; [11]
  MIC: 1 µg/mL
[3]; [12]
  MIC: 4 µg/mL (≈ 12.1 µM)
[4]; [13]
  MIC: 0.25 µg/mL
[4]; [14]
  MIC: 0.5 µg/mL (≈ 1.51 µM)

## CC[C@H]1OC(=O)[C@H](C)[C@@H](O[C@H]2C[C@@](C)(OC)[C@@H](O)[C@H](C)O2)[C@H](C)[C@@H](O[C@@H]2O[C@H](C)C[C@H](N(C)C)[C@H]2O)[C@](C)(OC)C[C@@H](C)C(=O)[C@H](C)[C@@H](O)[C@]1(C)O [Clarithromycin]
[2]; [9]
  MIC: 16 µg/mL
[2]; [10]
  MIC: > 512 µg/mL
[3]; [11]
  MIC: > 512 µg/mL
[3]; [12]
  MIC: > 512 µg/mL
[4]; [14]
  MIC: 1 µg/mL (≈ 1.34 µM)

## Nc1nc(=O)[nH]cc1F [Fluorocytosine, 5-fluorocytosine]
[5]; ATCC10231, 96 h, Fluorocytosine alone, 4 d
  MIC: 0.025 µg/mL (≈ 0.194 µM)
[5]; ATCC10231, 96 h, plus 25 μg/ml soluble chelator (example 4), 4 d
  MIC: < 0.003 µg/mL
[5]; ATCC10231, 240 h, Fluorocytosine alone, 10 d
  MIC: 0.05 µg/mL (≈ 0.387 µM)
[5]; ATCC10231, 240 h, plus 25 μg/ml soluble chelator (example 4), 10 d
  MIC: 0.012 µg/mL
[5]; ATCC10231, 504 h, Fluorocytosine alone, 21 d
  MIC: 0.05 µg/mL (≈ 0.387 µM)
[5]; ATCC10231, 504 h, plus 25 μg/ml soluble chelator (example 4), 21 d
  MIC: 0.012 µg/mL

## CC(=O)O[C@H]1C[C@@]2(C)[C@@H](C[C@@H](O)[C@H]3[C@@]4(C)CC[C@@H](O)[C@@H](C)[C@@H]4CC[C@@]32C)/C1=C(\CCC=C(C)C)C(=O)O [Fusidic acid]
[2]; [9]
  MIC: > 512 µg/mL
[2]; [10]
  MIC: > 512 µg/mL
[3]; [11]
  MIC: > 512 µg/mL
[3]; [12]
  MIC: > 512 µg/mL
[4]; [13]
  MIC: 0.0625 µg/mL
[4]; [14]
  MIC: 0.25 µg/mL (≈ 0.484 µM)

## NC[C@H]1O[C@H](O[C@H]2[C@H](O)[C@@H](O[C@H]3O[C@H](CO)[C@@H](O)[C@H](N)[C@H]3O)[C@H](N)C[C@@H]2N)[C@H](O)[C@@H](O)[C@@H]1O [Kanamycin]
[6]; [15]
  MIC (100% inhibition) antibiotic: 320 µg/mL (≈ 660 µM)
[6]; [16]
  MIC (100% inhibition) antibiotic: 20 µg/mL
[6]; [17]
  MIC (100% inhibition) antibiotic: 20 µg/mL

## C=C(C)C(=O)NCCn1ccc(=O)c(O)c1C [MAHMP, 3-hydroxy-1-(β-methacrylamidoethyl)-2-methyl-4(1H)-pyridinone]
[1]
  growth of the yeast compared to control: did not substantially restrict growth

## C/C(=C\C(=O)OCCCCCCCCC(=O)O)C[C@@H]1OC[C@H](C[C@@H]2O[C@H]2[C@@H](C)[C@H](C)O)[C@@H](O)[C@H]1O [Mupirocin]
[2]; [9]
  MIC: 64 µg/mL
[2]; [10]
  MIC: 128 µg/mL (≈ 256 µM)
[3]; [11]
  MIC: > 512 µg/mL
[3]; [12]
  MIC: > 512 µg/mL
[4]; [13]
  MIC: 0.0156 µg/mL
[4]; [14]
  MIC: 0.0625 µg/mL (≈ 0.125 µM)

## C[C@@H]1[C@H](O)[C@@H](C)/C=C/C=C/CC/C=C/C=C/C=C/C=C/C(O[C@H]2O[C@H](C)[C@@H](O)[C@H](N)[C@@H]2O)CC2O[C@](O)(CC(O)C(O)CCC(O)CC(O)CC(O)CC(=O)O[C@H]1C)CC(O)C2C(=O)O (stereo partly drawn) [Nystatin]
[7]; Nystatin alone, 4 d
  Nystatin MIC: 0.23 µg/mL
[7]; Nystatin alone, 10 d
  Nystatin MIC: 3.8 µg/mL
[7]; Nystatin alone, 21 d
  Nystatin MIC: 7.5 µg/mL
[7]; plus 25 μg/ml soluble chelator (example 4), 4 d
  Nystatin MIC: <0.12 µg/mL
[7]; plus 25 μg/ml soluble chelator (example 4), 10 d
  Nystatin MIC: 0.12 µg/mL
[7]; plus 25 μg/ml soluble chelator (example 4), 21 d
  Nystatin MIC: 0.47 µg/mL

## COC(=O)c1ccc(O)cc1 [Paraben, methyl paraben]
[8]; ATCC10231, 48 h, read-out: Sorbate or Paraben MIC, preservative alone, 2 days
  MIC: 500 µg/mL (≈ 3290 µM)
[8]; ATCC10231, 240 h, read-out: Sorbate or Paraben MIC, preservative alone, 10 days
  MIC: 1000 µg/mL (≈ 6570 µM)

## [H]/N=C(/N)N[C@H]1[C@H](O)[C@@H](O)[C@H](O[C@@H]2O[C@@H](C)[C@](O)(C=O)[C@H]2O[C@@H]2O[C@@H](CO)[C@H](O)[C@@H](O)[C@@H]2NC)[C@@H](N/C(N)=N\[H])[C@@H]1O [Streptomycin]
[6]; Staphylococcus aureus, strain WBG525, no chelator added (control), read-out: MIC Streptomycin
  MIC: > 640 µg/mL
[6]; [15]
  MIC (100% inhibition) antibiotic: >640 µg/mL
[6]; [16]
  MIC (100% inhibition) antibiotic: 640* μg/ml
[6]; [17]
  MIC (100% inhibition) antibiotic: 160* μg/ml

## CN(C)[C@@H]1C(O)=C(C(N)=O)C(=O)[C@@]2(O)C(O)=C3C(=O)c4c(O)cccc4[C@@](C)(O)[C@H]3C[C@@H]12 [Tetracycline]
[6]; [18]
  MIC (100% inhibition) antibiotic: 40 µg/mL (≈ 90 µM)

## Gentamcin
[6]; strain WBG1320, No Chelator Added (control), * slight growth <5% of control
  MIC (100% inhibition) antibiotic: 320* μg/ml
[6]; strain WBG1320, plus Soluble Chelating Composition (Example 6) 1.1 mM, * slight growth <5% of control
  MIC (100% inhibition) antibiotic: 40* μg/ml
[6]; strain WBG1320, plus Soluble Chelating Composition (Example 6) 2.2 mM, * slight growth <5% of control
  MIC (100% inhibition) antibiotic: 20* μg/ml

## Neomycin
[6]; [18]
  MIC (100% inhibition) antibiotic: 1280 µg/mL
[6]; strain WBG4340, plus Soluble Chelating Composition (Example 6) 1.1 mM
  MIC (100% inhibition) antibiotic: 160 µg/mL
[6]; strain WBG4340, plus Soluble Chelating Composition (Example 6) 2.2 mM
  MIC (100% inhibition) antibiotic: 80 µg/mL
[2]; Treated RPMI + 0.009 μM Fe
  MIC: 2 µg/mL
[2]; Untreated RPMI 0.11 μM Fe
  MIC: 2 µg/mL
[3]; Treated RPMI + 0.09 μM Fe
  MIC: 16 µg/mL
[3]; Untreated RPMI 0.11 μM Fe
  MIC: 32 µg/mL
[4]; Treated RPMI + 0.004 μM Fe
  MIC: 1 µg/mL
[4]; Untreated RPMI 0.11 μM Fe
  MIC: 1 µg/mL

## penicillin
[6]; no chelator
  MIC penicillin: 640 µg/mL
[6]; plus 4.4 mM Fe binding equivalents soluble chelating composition (example 6)
  MIC penicillin: 320 µg/mL
[6]; plus iron-loaded chelating composition
  MIC penicillin: did not lower the MIC
